Experiments:
L55 tumors = test: L55 Humanized Tumor Model with hPBMC challenge; type: in vivo; details: for tolerability (body weight): with or without hPBMCs, over the course of the study
Text: Grow the human NSCLC cell line, L55, in RPMI 1640 medium supplemented with 10% fetal bovine serum. Harvest sub-confluent cells with trypsin and rinse twice with growth medium lacking serum. Initiate the growth of subcutaneous tumors by injecting 5×10^6 in a 1:1 mixture of HBSS and MATRIGEL® (BD Biosciences, Franklin Lakes, N.J.) in the rear flank of NOD.Cg-Prkdc^scidIl2rg^tm1Wjl/SzJ mice more commonly known as NOD scid gamma chain knockout mice (NSG) mice (The Jackson Laboratory, Bar Harbour, Me.), which lack T cells, B cells, NK cells, and are deficient in cytokine signaling. When the mean tumor volume reaches approximately 200-300 mm^3, randomize the animals by tumor size and body weight and place into their respective treatment groups as indicated. After randomization, challenge tumor-bearing mice with PBS alone (no PBMCs) or with PBS containing 1×10^7 human PBMCs into the tail vein of recipients.
(§1) Capture tumor size and body weight using Study Director. Estimate tumor volume (V) by using the formula: V=0.536×L×W^2 where L=larger measured diameter and W=smaller of the perpendicular diameter. Transform the tumor volume data to a log scale to equalize variance across time and treatment groups. Analyze the log volume data with a two-way repeated measures analysis of variance by time and treatment using the MIXED procedures in SAS software (Version 9.2). The correlation model for the repeated measures is Spatial Power. Compare treated groups to the control group at each time point. Use the MIXED procedure also separately for each treatment group to calculate adjusted means and standard errors at each time point. Both analyses account for the autocorrelation within each animal and for the loss of data that occurs when animals with large tumors are removed from the study early. Calculate relative changes in tumor volume (% T/C) using the tumor volume measurements taken nearest to the last day of dosing with Example 1A, using the formula % T/C=100×ΔT/ΔC, where T=mean tumor volume of the compound treated group, ΔT=mean tumor volume of the compound treated group minus the mean tumor volume on the baseline day, C=mean tumor volume of the control (vehicle) group, and ΔC=mean tumor volume of the control group minus the mean tumor volume on the baseline day. If ΔT<0, then a tumor regression value is calculated instead of % T/C whereby % Regression=100×ΔT/Tinitial such that Tinital=mean tumor volume on the baseline day.
(§2) Assess antitumor efficacy of Example 1A and LY3300054 alone, or in combination by measuring tumor volume by three dimensional caliper measurements twice a week during the course of the study. Measure body weight twice weekly during the course of the study, as a general indicator of tolerability.
(§3) Formulations for Example 1A and LY3300054: Formulate Example 1A on a weekly basis in 1% HEC/0.25% Tween 80/0.05% Antifoam and store at 4° C. Solublize LY3300054 in phosphate buffered saline and store at 4° C.
The L55 NCLC human cancer cell line is intrinsically resistant to the allo-response associated with the injection of hPBMCs. The goal of these studies is to assess the ability of compounds to potentiate the allo response allowing human T cells to target and restrict the growth of a human L55 tumors in a mouse that lacks an adaptive immune system (NSG mice). […]

Colon26 tumors = test: Mouse Syngeneic Colon26 Model; type: in vivo; details: for changes in tumor volume (% T/C) / reduction in body weight compared to baseline: day 20
Procedure: Grow the mouse BALB/c-derived Colon26 colon cancer cell line in RPMI 1640 medium supplemented with 10 mM HEPES, […] sodium pyruvate, and 10% fetal bovine serum. Harvest sub-confluent cells with trypsin and rinse twice with complete growth medium lacking serum. Initiate subcutaneous tumors by injecting 1×10^6 cells resuspended in HBSS in the rear flank of immune-competent BALB/c mice (Envigo, Indianapolis, Ind.). Six days after tumor implantation, randomize animals based on body weight and place into their respective treatment groups using the number of animals per group as indicated.
as §1, §2, §3
Treat female BALB/c mice (n=10) bearing Colon26 tumors with Example 1A twice daily for 21 days by oral gavage at doses of 10, 50, and 100 mg/kg. Start administration of Example 1A six days after tumor implantation, and monitor tumor growth and body weight twice a week for the duration of the treatment period.

SKOV3 cells = test: Cell viability in SKOV3 cells (CELLTITER-GLO); type: cell-based
Procedure: The purpose of this assay is to evaluate the inhibition of the production of kynurenine, N-formyl-kynurenine and the depletion of tryptophan in IDO1 expressing cancer cells and assess whether compounds are overtly toxic to these cells. Exemplary compounds are tested for the inhibition of IDO1 activity in SKOV3 (ATCC, Cat # HTB-77), an ovarian cancer cell line that intrinsically expresses IDO1. Due to IDO1 expression, SKOV3 cells degrade tryptophan with the concomitant production of kynurenine and compounds are tested for their ability to inhibit the production of kynurenine, N-formyl-kynurenine and the depletion of tryptophan. Optionally, overt toxicity of compounds can be assessed by monitoring cell viability.
Plate SKOV3 cells, an IDO1-expressing ovarian cancer cell line, at 20,000 cells per well in 100 μL of McCoys 5A media (Gibco, Cat #16600-082) supplemented with non-essential amino acids (Gibco, Cat #11140-050), 1 mM sodium pyruvate (Gibco, Cat #11360-070), and 10% fetal bovine serum, complete media, in a 96 well tissue culture plate (BD Biosciences). Then, incubate cells for 16 hours in a 37° C. incubator with 5% CO2. […] Optionally, return original plate(s) to the incubator for an additional 24 hours and measure the viability of cells by adding an equal volume of CELLTITER-GLO® (Promega) and measure luminescence in an PERKIN ELMER® EnVision plate reader.

IDO1 = molecular target: T1, IDO1 (Homo sapiens, UniProt P14902); test: In Vivo Target Inhibition Assay (SKOV3X tumors); details: mouse, 12 hours after dosing, SKOV3X tumor-bearing mice, read-out: inhibition of kynurenine in tumor
T1 construct: an ovarian cancer cell line that intrinsically expresses IDO1; endogenous in cells; host or cells: SKOV3 (ATCC HTB-77) in culture; SKOV3X (Indiana University Research and Technology Center) as intraperitoneal tumors in athymic nude mice
T1 sequence (P14902 whole entry): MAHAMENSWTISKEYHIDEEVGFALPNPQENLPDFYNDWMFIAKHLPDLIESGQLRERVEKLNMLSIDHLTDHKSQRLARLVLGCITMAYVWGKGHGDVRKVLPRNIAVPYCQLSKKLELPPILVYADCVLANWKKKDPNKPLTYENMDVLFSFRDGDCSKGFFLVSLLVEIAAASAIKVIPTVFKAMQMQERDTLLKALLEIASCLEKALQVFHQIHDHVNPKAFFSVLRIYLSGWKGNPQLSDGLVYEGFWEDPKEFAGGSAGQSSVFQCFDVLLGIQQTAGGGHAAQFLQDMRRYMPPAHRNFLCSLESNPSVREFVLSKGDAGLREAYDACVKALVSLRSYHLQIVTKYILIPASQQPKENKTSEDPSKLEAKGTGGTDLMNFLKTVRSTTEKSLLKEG
Text: The purpose of this assay is to evaluate the inhibition of kynurenine production and tryptophan depletion in cancer cells in vivo. SKOV3X (Indiana University Research and Technology Center), an ovarian cancer cell line, intrinsically expresses IDO1 and readily forms tumors in the peritoneal cavity of Athymic Nude-Foxn1^nu mice (Harlan). As a consequence of IDO1 expression, SKOV3X tumors locally deplete tryptophan with the concomitant production of high levels of kynurenine in the tumor microenvironment. The purpose of this assay is to measure the ability of test compounds to inhibit IDO1 evidenced by the clear reduction in kynurenine levels in the tumor.
Culture SKOV3X in McCoys 5A media (Gibco, Cat #16600-082) supplemented with non-essential amino acids (Gibco, Cat #11140-050), 1 mM sodium pyruvate (Gibco, Cat #1360-070) and 10% FBS and incubate at 37° C. in 5% CO2. Trypsinize and isolate cells from culture and resuspend cells in Hank's balanced salt solution (HBSS). Implant 2×10^6 SKOV3X cells into the intraperitoneal cavity of each Athymic Nude-Foxn1^nu mouse (Harlan). Approximately three weeks post-implantation, palpate animals to ensure tumor formation and randomize tumor-bearing mice into vehicle control and compound treatment groups. Administer compound formulated in vehicle containing 1% hydroxyethylcellulose (HEC) and 0.025% TWEEN® 80 and 0.05% Antifoam or vehicle alone by oral gavage. Generate time-course inhibition profile by dosing tumor-bearing animals with a single dose and collect plasma, liver, and tumor samples at 2, 4, 8, 12, and 24 hours post dose. Collect blood into EDTA-containing blood collection tubes (Greiner bio-one, Cat #450474) and centrifuge at 2365×g, isolate plasma, and freeze at −80° C. Isolate liver and tumor fragments, record weights and flash freeze and store at −80° C.
Prepare calibration standards for L-kynurenine and L-tryptophan by first generating stripped matrices, which are plasma and tissue homogenates depleted of L-kynurenine and L-tryptophan by dialysis. […]

[1] = 10 mg/kg twice daily oral gavage
[2] = 50 mg/kg twice daily oral gavage
[3] = 100 mg/kg twice daily oral gavage

| Molecule | change in tumor volume (% T/C) (L55 tumors; 10 mg/kg intraperitoneal once a week for 4 weeks, hPBMCs, day 37, vs vehicle alone lacking PBMCs) [%] | tolerability (body weight) (L55 tumors; LY3300054 10 mg/kg once a week) | changes in tumor volume (% T/C) (Colon26 tumors; [1]) [%] | reduction in body weight compared to baseline (Colon26 tumors; [1]) [%] | changes in tumor volume (% T/C) (Colon26 tumors; [2]) [%] | reduction in body weight compared to baseline (Colon26 tumors; [2]) [%] | changes in tumor volume (% T/C) (Colon26 tumors; [3]) [%] | reduction in body weight compared to baseline (Colon26 tumors; [3]) [%] | tolerability (body weight changes) (Colon26 tumors; 10, 50 and 100 mg/kg twice daily for 21 days, compared to vehicle-treated mice) | % T/C (L55 tumors; 75 mg/kg twice daily oral for 21 days, presence of hPBMCs, day 41, vs vehicle control lacking hPBMCs) [%] | tumor growth inhibition (L55 tumors; 75 mg/kg twice daily oral, absence of hPBMCs, compared to vehicle alone without PBMCs) | tolerability (body weight) (L55 tumors; Example 1A 75 mg/kg twice daily) | concentration up to which cell proliferation is not inhibited (SKOV3 cells) [µM] | inhibition at 5 mg/kg (IDO1; 5 mg/kg single oral dose) [%] | inhibition at 25 mg/kg (IDO1; 25 mg/kg single oral dose) [%] | inhibition at 75 mg/kg (IDO1; 75 mg/kg single oral dose) [%] |
| --- | --- | --- | --- | --- | --- | --- | --- | --- | --- | --- | --- | --- | --- | --- | --- | --- |
| LY3300054: an antibody that binds human PD-L1, light and heavy chains defined by SEQ ID NOs | 75.7 | No significant tolerability issues | – | – | – | – | – | – | – | – | – | – | – | – | – | – |
| C[C@@H](NC(=O)c1ccc(F)cc1)c1ccc2c(c1)CCN2C(=O)C1CCOCC1 (single isomer, unassigned) [Example 1A] | – | – | 17.5 | 2.5 | 31.2 | 8 | 62.6 | 2.5 | no significant tolerability issues | 47.6 | did not result in significant tumor growth inhibition | No significant tolerability issues | ≥ 10 | 37 | 59 | 79 |
